We go through five compounds from PubChem BioAssay AID2605 (Johns Hopkins Ion Channel Center, 2010).

In the assay the target is Voltage-gated inwardly rectifying potassium channel KCNH2 (Homo sapiens) (UniProt Q12809). As to the kind of experiment: hERG rescue from dofetilide block, confirmation, manual patch clamp, HEK293 cells (AID 2605). Conditions: at 10 µM, stronger effect = higher value; for potentiation: measured here: hERG potentiation without dofetilide.
Chain of Voltage-gated inwardly rectifying potassium channel KCNH2 (Homo sapiens) (Q12809 whole entry, looked up): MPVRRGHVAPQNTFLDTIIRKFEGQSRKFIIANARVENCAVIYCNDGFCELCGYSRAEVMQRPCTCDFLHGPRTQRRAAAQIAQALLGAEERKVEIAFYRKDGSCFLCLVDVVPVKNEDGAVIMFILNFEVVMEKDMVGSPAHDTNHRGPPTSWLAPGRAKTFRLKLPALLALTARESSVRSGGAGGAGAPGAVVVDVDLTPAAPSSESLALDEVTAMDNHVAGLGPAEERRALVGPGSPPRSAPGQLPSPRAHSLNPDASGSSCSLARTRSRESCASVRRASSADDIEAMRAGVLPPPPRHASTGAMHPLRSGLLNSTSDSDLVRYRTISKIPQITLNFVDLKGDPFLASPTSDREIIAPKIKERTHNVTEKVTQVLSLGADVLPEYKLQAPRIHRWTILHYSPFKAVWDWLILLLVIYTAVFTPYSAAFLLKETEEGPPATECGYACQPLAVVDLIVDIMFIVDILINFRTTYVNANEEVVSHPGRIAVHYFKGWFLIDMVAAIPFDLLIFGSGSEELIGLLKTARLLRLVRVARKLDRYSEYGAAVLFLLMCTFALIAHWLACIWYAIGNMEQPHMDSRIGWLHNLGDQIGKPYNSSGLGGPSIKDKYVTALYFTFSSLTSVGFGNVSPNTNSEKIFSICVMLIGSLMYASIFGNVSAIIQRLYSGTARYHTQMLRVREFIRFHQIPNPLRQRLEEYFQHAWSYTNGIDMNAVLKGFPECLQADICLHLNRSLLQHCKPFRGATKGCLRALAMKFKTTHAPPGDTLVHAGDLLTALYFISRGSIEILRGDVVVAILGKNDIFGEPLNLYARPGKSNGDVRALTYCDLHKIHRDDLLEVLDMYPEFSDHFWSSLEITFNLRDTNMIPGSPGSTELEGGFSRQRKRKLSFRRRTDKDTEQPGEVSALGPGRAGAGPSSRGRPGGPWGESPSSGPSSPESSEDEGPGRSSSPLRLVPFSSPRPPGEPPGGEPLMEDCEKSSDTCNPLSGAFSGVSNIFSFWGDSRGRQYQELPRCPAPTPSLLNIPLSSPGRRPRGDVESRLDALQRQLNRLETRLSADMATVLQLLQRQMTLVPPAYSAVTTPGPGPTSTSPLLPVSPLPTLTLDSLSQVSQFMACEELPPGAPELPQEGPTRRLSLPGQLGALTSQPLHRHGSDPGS

In the case of `Cc1ccc(NC(=S)c2nc3ccccc3s2)cc1`, the current remaining with dofetilide is 23.9% and the potentiation stood at 107%.
For `O=C1C2CC=CCC2C(=O)N1c1ccc(Cc2ccncc2)cc1` (stereo not given), in that order: 33.8% and 107%.
On to `CCC1CCCCN1C(=S)NC(=O)c1cccs1` (stereo not given), for which the current remaining with dofetilide is 46.5% and the potentiation was found to be 140%.
As to `Cc1cccc(NC(=S)NC(=O)c2cc(-c3ccccc3)nc3ccccc23)c1`, the current remaining with dofetilide was 32.2% and the potentiation was determined as 107%.
For `O=C(NC(=S)Nc1ccccc1)c1cc(-c2ccccc2)nc2ccccc12`, in that order: 31% and 119%.
